{
  "source": "patent US20240382556A1",
  "about": "“METHODS AND COMPOSITIONS FOR THE TREATMENT OF ALCOHOL DEPENDENCE” (Duke University, priority 2023, published 2024)",
  "key": {"[1]": {"tested_on": "Adult male C57/B16J mice", "experiment": "Drinking in the Dark (DID) mouse model of binge drinking behavior", "type": "in vivo", "protocol": "To measure binge drinking behavior, experiments were conducted that used the Drinking in the Dark (DID) model as previously published (see, Thiele T E, Crabbe J C, Boehm S L, 2nd (2014): “Drinking in the Dark” (DID): a simple mouse model of binge-like alcohol intake. Curr Protoc Neurosci. 68: 9 49 41-49 49 12). Adult male C57/B16J mice on reverse light-dark cycle had water replaced with alcohol three hours into the dark cycle. On days 1-3 of each week (Mon-Wed), mice received 20% alcohol for 2 hrs and on day 4 (Thur) received for 4 hours.\nMice were treated with Rapastinel at dose of 30 mg/kg or saline via intraperitoneal injection (i.p.) 30 minutes prior to alcohol exposure on days 1-4 of cycle either during first cycle of DID or after first undergoing DID for 5 weeks prior to treatment on week 6 (see, FIG. 1)."}, "[2]": {"tested_on": "animal models", "settings": "unlike ketamine, Moskal et al. 2017; cited from earlier work"}, "[3]": {"tested_on": "preclinical rodent models", "settings": "previously shown; cited from earlier work"}},
  "note": "Residues, ends and D or L forms follow the SMILES beside them.",
  "data": [
    {"smiles": "C[C@@H](O)[C@H](N)C(=O)N1CCC[C@H]1C(=O)N1CCC[C@H]1C(=O)N[C@H](C(N)=O)[C@@H](C)O", "note": "[Rapastinel, L-threonyl-L-prolyl-L-prolyl-L-threoninamide] (H-TPPT-NH2)", "values": [
      {"measurement": "alcohol consumption (daily and total) compared to saline control", "setting": "[1]; alcohol naïve mice, 1 cycle of DID, daily i.p. injection of 30 mg/kg prior to presentation of alcohol", "value": "no effect"},
      {"measurement": "Total average weekly alcohol consumption, week 6 with treatment in comparison to weeks 1-5", "setting": "[1]; mice after 5 weeks of DID, 30 mg/kg i.p. 30 minutes prior to alcohol on days 1-4 of week 6, with and without removal of outliers (>90%)", "value": "reduced alcohol consumption"},
      {"measurement": "negative side effects during treatment", "setting": "[2]", "value": "has not been shown to produce any negative side effects"},
      {"measurement": "cravings for opiates", "setting": "[3]", "value": "effective in reducing cravings for opiates"}
    ]}
  ]
}
